# According to publication PMC11620503 (Antimicrobial Agents and Chemotherapy, 2024):
# Where two headings read alike, the source gives them in different places.
# Legend:
# [1] = system: E. coli CDC-137 (NDM-6), PBP3 mutations; test: MIC, broth microdilution; format: cell-based; details: Escherichia coli, fixed BLI concentration (μg/mL) in parentheses in label
# [2] = system: E. coli CDC-119 (NDM-1), PBP3 mutations; test: MIC, broth microdilution; format: cell-based; details: Escherichia coli
# [3] = system: E. coli CDC-150 (NDM-5), PBP3 mutations; test: MIC, broth microdilution; format: cell-based; details: Escherichia coli, fixed BLI concentration (μg/mL) in parentheses in label
# [4] = system: Cefepime/taniborbactam-nonsusceptible Enterobacterales with metallo-carbapenemases (25); test: MIC, broth microdilution; format: cell-based; details: CDC AR Bank; for MIC50 / MIC90: fixed concentration (μg/mL) in label
# [5] = system: E. coli CDC-435 (NDM-1), PBP3 mutations; test: MIC, broth microdilution; format: cell-based; details: Escherichia coli, fixed BLI concentration (μg/mL) in parentheses in label
# [6] = system: MEM-nonsusceptible Enterobacterales with metallo-carbapenemases; test: MIC, broth microdilution; format: cell-based; details: MEM-nonsusceptible Enterobacterales with metallo-carbapenemases (41), CDC AR Bank; for MIC50 / MIC90: fixed concentration (μg/mL) in label; for MIC50: read-out: MIC50; for MIC90: read-out: MIC90
# [7] = system: MBL-producing isolates (Enterobacterales); test: MIC, broth microdilution; format: cell-based; details: Enterobacterales with metallo-carbapenemases (47), CDC AR Bank, fixed concentration (μg/mL) in label
# [8] = system: E. coli CDC-151 (NDM-5), PBP3 mutations; test: MIC, broth microdilution; format: cell-based; details: Escherichia coli, fixed BLI concentration (μg/mL) in parentheses in label
# [9] = system: E. coli CDC-149 (NDM-7), PBP3 mutations; test: MIC, broth microdilution; format: cell-based; details: Escherichia coli
# [10] = system: E. coli CDC-162 (NDM-7), PBP3 mutations; test: MIC, broth microdilution; format: cell-based; details: Escherichia coli
# [11] = system: Acinetobacter baumannii (46); test: MIC, broth microdilution; format: cell-based
# [12] = system: Enterobacterales (154), CDC AR Bank; test: MIC, broth microdilution; format: cell-based
# [13] = system: MEM-nonsusceptible Enterobacterales; test: MIC, broth microdilution; format: cell-based; details: MEM-nonsusceptible Enterobacterales (92), CDC AR Bank
# 96 P. aeruginosa = test: MIC, broth microdilution; format: cell-based, Pseudomonas aeruginosa; details: Pseudomonas aeruginosa (96)
# [14] = system: 55 isolates of A. baumannii; test: MIC, broth microdilution; format: cell-based, Acinetobacter baumannii; details: Acinetobacter baumannii (55), fixed concentration (μg/mL) in label
# [15] = system: serine-carbapenemase-producing isolates (Enterobacterales); test: MIC, broth microdilution; format: cell-based; details: Enterobacterales with serine-carbapenemases (61), CDC AR Bank
# [16] = system: MEM-, imipenem/relebactam-, and ceftolozane/tazobactam-nonsusceptible P. aeruginosa; test: MIC, broth microdilution; format: cell-based, Pseudomonas aeruginosa; details: for MIC50 / MIC90: Pseudomonas aeruginosa; for MIC50: read-out: MIC50; for MIC90: read-out: MIC90
# [17] = system: MEM-nonsusceptible Enterobacterales with serine-carbapenemases; test: MIC, broth microdilution; format: cell-based; details: MEM-nonsusceptible Enterobacterales with serine-carbapenemases (42), CDC AR Bank
# [18] = in humans; cited from earlier work
# [19] = CLSI breakpoints, marked c: breakpoints for β-lactam alone
# [20] = fixed concentration (μg/mL) in label
# [21] = fixed concentration (μg/mL) in label, read-out: MIC50
# [22] = fixed concentration (μg/mL) in label, read-out: MIC90
# [23] = Imipenem/relebactam-nonsusceptible Pseudomonas aeruginosa (43), CLSI breakpoints, marked c: breakpoints for β-lactam alone
# [24] = MEM-nonsusceptible Pseudomonas aeruginosa (76), CLSI breakpoints, marked c: breakpoints for β-lactam alone
# [25] = Imipenem/relebactam-nonsusceptible Pseudomonas aeruginosa (43), fixed concentration (μg/mL) in label
# [26] = MEM-nonsusceptible Pseudomonas aeruginosa (76), fixed concentration (μg/mL) in label
smiles,measurement,setting,value
"CO/N=C(\C(=O)N[C@@H]1C(=O)N2C(C(=O)[O-])=C(C[N+]3(C)CCCC3)CS[C@H]12)c1csc(N)n1 [FEP, cefepime]",MIC,[1],> 64 µg/mL
same,MIC,[2],> 64 µg/mL
same,MIC,[3],> 64 µg/mL
same,MIC50,[4],> 64 µg/mL
same,MIC90,[4],> 64 µg/mL
same,MIC,[5],> 64 µg/mL
same,MIC50,[6],> 64 µg/mL
same,MIC90,[6],> 64 µg/mL
same,MIC50,[7]; read-out: MIC50,> 64 µg/mL
same,MIC90,[7]; read-out: MIC90,> 64 µg/mL
same,MIC,[8],> 64 µg/mL
same,MIC,[9],> 64 µg/mL
same,MIC,[10],> 64 µg/mL
same,CLSI MIC interpretation I (intermediate),[11]; [19],4.3%
same,CLSI MIC interpretation R (resistant),[11]; [19],95.7%
same,CLSI MIC interpretation S (susceptible),[11]; [19],0%
same,MIC50,[11]; [20],64 µg/mL
same,MIC90,[11]; [20],> 256 µg/mL
"C[C@H]1[C@H](NC(=O)/C(=N\OC(C)(C)C(=O)O)c2csc(N)n2)C(=O)N1S(=O)(=O)O [ATM, aztreonam]",MIC,[1],> 64 µg/mL
same,CLSI MIC interpretation I (intermediate),[12]; [19],2.6%
same,CLSI MIC interpretation R (resistant),[12]; [19],80.5%
same,CLSI MIC interpretation S (susceptible),[12]; [19],16.9%
same,MIC50,[12]; [20],> 64 µg/mL
same,MIC90,[12]; [20],> 64 µg/mL
same,MIC,[2],> 64 µg/mL
same,MIC,[3],32 µg/mL
same,CLSI MIC interpretation I (intermediate),[13]; [19],1.1%
same,CLSI MIC interpretation R (resistant),[13]; [19],90.2%
same,CLSI MIC interpretation S (susceptible),[13]; [19],8.7%
same,MIC50,[13]; [21],> 64 µg/mL
same,MIC90,[13]; [22],> 64 µg/mL
same,CLSI MIC interpretation R (resistant),96 P. aeruginosa; [19],47.9%
same,CLSI MIC interpretation S (susceptible),96 P. aeruginosa; [19],39.6%
same,MIC50,96 P. aeruginosa; [21],16 µg/mL
same,MIC90,96 P. aeruginosa; [22],> 64 µg/mL
same,MIC50,[14]; read-out: MIC50,64 µg/mL
same,MIC90,[14]; read-out: MIC90,> 64 µg/mL
same,CLSI MIC interpretation I (intermediate),[4]; [19],0%
same,CLSI MIC interpretation R (resistant),[4]; [19],96%
same,CLSI MIC interpretation S (susceptible),[4]; [19],4%
same,MIC50,[4],> 64 µg/mL
same,MIC90,[4],> 64 µg/mL
same,MIC,[5],> 64 µg/mL
same,CLSI MIC interpretation I (intermediate),[6]; [19],0%
same,CLSI MIC interpretation R (resistant),[6]; [19],85.4%
same,CLSI MIC interpretation S (susceptible),[6]; [19],14.6%
same,MIC50,[6],> 64 µg/mL
same,MIC90,[6],> 64 µg/mL
same,MIC,[8],32 µg/mL
same,MIC,[9],0.5 µg/mL
same,MIC,[10],> 64 µg/mL
same,CLSI MIC interpretation I (intermediate),[15]; [19],3.3%
same,CLSI MIC interpretation R (resistant),[15]; [19],85.2%
same,CLSI MIC interpretation S (susceptible),[15]; [19],11.5%
same,MIC50,[15]; [21],> 64 µg/mL
same,MIC90,[15]; [22],> 64 µg/mL
same,CLSI MIC interpretation (%) I,"[16]; I, intermediate (including susceptible dose-dependent), CLSI breakpoints, last subgroup of Table 2",8.9%
same,CLSI MIC interpretation I (intermediate),[16]; [23],9.3%
same,CLSI MIC interpretation R (resistant),[16]; [23],60.5%
same,CLSI MIC interpretation S (susceptible),[16]; [23],30.2%
same,CLSI MIC interpretation R (resistant),[16]; [24],56.6%
same,CLSI MIC interpretation S (susceptible),[16]; [24],30.3%
same,MIC50,[16]; [25],32 µg/mL
same,MIC90,[16]; [25],> 64 µg/mL
same,MIC50,[16]; [26],32 µg/mL
same,MIC90,[16]; [26],> 64 µg/mL
same,MIC50,"[16]; Table 2, broth microdilution",32 µg/mL
same,MIC90,"[16]; Table 2, broth microdilution",> 64 µg/mL
same,CLSI MIC interpretation (%) R,"[16]; R, resistant, CLSI breakpoints, last subgroup of Table 2",62.2%
same,CLSI MIC interpretation (%) S,"[16]; S, susceptible, CLSI breakpoints, last subgroup of Table 2",28.9%
same,CLSI MIC interpretation I (intermediate),[17]; [19],2.4%
same,CLSI MIC interpretation R (resistant),[17]; [19],92.9%
same,CLSI MIC interpretation S (susceptible),[17]; [19],4.8%
same,MIC50,[17]; [21],> 64 µg/mL
same,MIC90,[17]; [22],> 64 µg/mL
O=C(O)c1c(F)ccc2c1OB(O)[C@@H]1C[C@H]21 [xeruborbactam],protein binding rate,[18],over 90%
